Source: patent publication US9085555B2, “Complement pathway modulators and uses thereof” (priority 2011, dated 2015)
Like-named read-outs stand apart in the source and are kept apart here.

Target: Factor D (Homo sapiens (Human), UniProt P00746)
Assay: biochemical
Type: biochemical

Factor D, sequence (P00746 26-253): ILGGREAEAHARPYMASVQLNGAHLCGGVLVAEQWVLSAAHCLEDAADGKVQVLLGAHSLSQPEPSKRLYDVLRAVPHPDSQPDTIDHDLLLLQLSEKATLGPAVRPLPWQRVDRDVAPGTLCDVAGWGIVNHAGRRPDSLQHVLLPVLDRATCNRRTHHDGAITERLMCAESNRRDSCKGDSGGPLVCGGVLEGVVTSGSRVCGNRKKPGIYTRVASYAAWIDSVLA

## NC[C@@]1(F)C[C@@H](C(=O)Nc2cccc(OC(F)(F)F)c2)N(C(=O)Nc2cn(C(N)=O)c3ccccc23)C1 [Example 414, (2S,4S)-4-Aminomethyl-4-fluoro-pyrrolidine-1,2-dicarboxylic acid 1-[(1-carbamoyl-1H-indol-3-yl)-amide]2-[(3-trifluoromethoxy-phenyl)-amide]]
read-out: IC50
  IC50: 311 nM

## COC(=O)COc1ccc2c(NC(=O)N3[C@@H]4C[C@@H]4C[C@H]3C(=O)Nc3cccc(OC(F)(F)F)c3)cn(C(N)=O)c2c1 [Example 276, (1-Carbamoyl-3-{[(1R,3S,5R)-3-(3-trifluoromethoxy-phenylcarbamoyl)-2-aza-bicyclo[3.1.0]hexane-2-carbonyl]-amino}-1H-indol-6-yloxy)-acetic acid methyl ester]
read-out: IC50
  IC50: 1310 nM

## NC(=O)n1cc(NC(=O)N2N=CC[C@@H]2C(=O)NCc2cccc(Cl)c2F)c2ccccc21 (single isomer, unassigned) [Example 363, R^§)-4,5-Dihydro-pyrazole-1,5-dicarboxylic acid 1-[(1-carbamoyl-1H-indol-3-yl)-amide]5-(3-chloro-2-fluoro-benzylamide]
read-out: IC50
  IC50: 9250 nM

## NC(=O)c1nn(CC(=O)N2[C@@H]3C[C@@H]3C[C@H]2C(=O)Nc2cccc(-c3ccccc3Cl)c2F)c2cnccc12 [Example 685, 1-{2-[(1R,3S,5R)-3-(2′-Chloro-2-fluoro-biphenyl-3-ylcarbamoyl)-2-aza-bicyclo[3.1.0]hex-2-yl]-2-oxo-ethyl}-1H-pyrazolo[3,4-c] pyridine-3-carboxylic acid amide]
read-out: IC50
  IC50: 5 nM

## NC(=O)n1cc(NC(=O)N2CC[C@@H](O)[C@H]2C(=O)NCc2cccc(Cl)c2)c2ccccc21 [Example 177, (2S,3R)-3-Hydroxy-pyrrolidine-1,2-dicarboxylic acid 1-[(1-carbamoyl-1H-indol-3-yl)-amide] 2-(3-chloro-benzylamide)]
read-out: IC50
  IC50: 85 nM

## COC(=O)[C@H](CC(C)C)NC(=O)[C@@H]1C[C@H]2C[C@H]2N1C(=O)Cn1nc(C(C)=O)c2cccnc21 [Example 766, (S)-2-({(1R,3S,5R)-2-[2-(3-Acetyl-pyrazolo[3,4-b]pyridin-1-yl)-acetyl]-2-aza-bicyclo[3.1.0]hexane-3-carbonyl}-amino)-4-methyl-pentanoic acid methyl ester]
read-out: IC50
  IC50: 216 nM

## NC(=O)n1cc(NC(=O)N2C3CC3C[C@H]2C(=O)Nc2cccc(OC(F)(F)F)c2)c2ccc(F)cc21 (stereo partly drawn) [Example 297, (1R,3S,5R)-2-Aza-bicyclo[3.1.0]hexane-2,3-dicarboxylic acid 2-[(1-carbamoyl-6-fluoro-1H-indol-3-yl)-amide] 3-[(3-trifluoromethoxy-phenyl)-amide]]
read-out: IC50
  IC50: 350 nM

## CC(=O)n1cc(NC(=O)N2C[C@H](F)C[C@H]2C(=O)NCc2cccc(Cl)c2F)c2ccc(OC(F)F)cc21 [Example 368, 2S,4R)-4-Fluoro-pyrrolidine-1,2-dicarboxylic acid 1-[(1-acetyl-6-difluoromethoxy-1H-indol-3-yl)-amide]2-(3-chloro-2-fluoro-benzylamide]
read-out: IC50
  IC50: 66 nM

## CO[C@H]1[C@@H](C(=O)NCc2cccc(Cl)c2F)N(C(=O)Cn2nc(C(N)=O)c3cc(C)ncc32)C[C@@H]1F [Example 661, 1-{2-[(2S,3S,4S)-2-(3-Chloro-2-fluoro-benzylcarbamoyl)-4-fluoro-3-methoxy-pyrrolidin-1-yl]-2-oxo-ethyl}-5-methyl-1H-pyrazolo[3,4-c]pyridine-3-carboxylic acid amide]
read-out: IC50
  IC50: 10 nM

## NC(=O)n1cc(NC(=O)N2C[C@@H](N)C[C@H]2C(=O)NCc2ccc(C(F)(F)F)cc2)c2ccccc21 [Example 45, (2S,4S)-4-Amino-pyrrolidine-1,2-dicarboxylic acid 1-[(1-carbamoyl-1H-indol-3-yl)-amide] 2-(4-trifluoromethyl-benzylamide)]
read-out: IC50
  IC50: 22500 nM

## NC(=O)n1cc(NC(=O)N2[C@@H]3C[C@@H]3C[C@H]2C(=O)N[C@H](CO)c2cccc(Br)c2)c2ccccc21 [Example 217, (1R,3S,5R)-2-Azabicyclo[3.1.0]hexane-2,3-dicarboxylic acid 3-{[(S)-1-(3-bromo-phenyl)-2-hydroxy-ethyl]-amide} 2-[(1-carbamoyl-1H-indol-3-yl)-amide]]
read-out: IC50
  IC50: 41 nM

## Cc1cc2c(cn1)c(C(N)=O)nn2CC(=O)N1[C@@H]2C[C@@H]2C[C@H]1C(=O)Nc1cccc(OC(F)(F)F)c1F [Example 713, 1-{2-[(1R,3S,5R)-3-(2-Fluoro-3-trifluoromethoxy-phenylcarbamoyl)-2-aza-bicyclo[3.1.0]hex-2-yl]-2-oxo-ethyl}-6-methyl-1H-pyrazolo[4,3-c]pyridine-3-carboxylic acid amide]
read-out: IC50
  IC50: 260 nM

## CC(=O)c1nn(CC(=O)N2[C@@H]3C[C@@H]3C[C@H]2C(=O)Nc2cccc(Br)n2)c2ccncc12 [Example 740, (1R,3S,5R)-2-[2-(3-Acetyl-pyrazolo[4,3-c]pyridin-1-yl)-acetyl]-2-aza-bicyclo[3.1.0] hexane-3-carboxylic acid (6-bromo-pyridin-2-yl)-amide]
read-out: IC50
  IC50: 13 nM

## NC(=O)n1cc(NC(=O)N2[C@@H]3C[C@@H]3C[C@H]2C(=O)Nc2cncc(Br)c2)c2ccccc21 [Example 171, (1R,3S,5R)-2-Aza-bicyclo[3.1.0]hexane-2,3-dicarboxylic acid 2-[(1-carbamoyl-1H-indol-3-yl)-amide] 3-[(5-bromo-pyridin-3-yl)-amide]]
read-out: IC50
  IC50: 200 nM

## CC(=O)c1cn(CC(=O)N2C[C@H](F)C[C@H]2C(=O)NCc2cccc(Cl)c2F)c2cc(OC(F)(F)F)ccc12 [Example 509, (2S,4R)-1-[2-(3-Acetyl-6-trifluoromethoxy-indol-1-yl)-acetyl]-4-fluoro-pyrrolidine-2-carboxylic acid 3-chloro-2-fluoro-benzylamide]
read-out: IC50
  IC50: 58 nM

## NC(=O)n1cc(NC(=O)N2CCS[C@H]2C(=O)NCc2cccc(Cl)c2F)c2cc(F)ccc21 [Example 264, (S)-Thiazolidine-2,3-dicarboxylic acid 3-[(1-carbamoyl-5-fluoro-1H-indol-3-yl)-amide] 2-(3-chloro-2-fluoro-benzylamide)]
read-out: IC50
  IC50: 10 nM

## NC(=O)n1cc(NC(=O)N2C[C@@H](N)C[C@H]2C(=O)NC(CO)c2cc(Cl)cc(Cl)c2)c2ccccc21 (stereo partly drawn) [Example 70, (2S,4S)-4-Amino-pyrrolidine-1,2-dicarboxylic acid 1-[(1-carbamoyl-1H-indol-3-yl)-amide] 2-{[1-(3,5-dichloro-phenyl)-2-hydroxy-ethyl]-amide}]
read-out: IC50
  IC50: 2580 nM

## NC(=O)n1cc(NC(=O)N2C[C@@H]3C[C@@H]3[C@H]2C(=O)NCc2cccc(Cl)c2F)c2cc(OCCO)ccc21 (relative stereo) [Example 382, 1S*,2S*,5R*)-3-Aza-bicyclo[3.1.0]hexane-2,3-dicarboxylic acid 3-{[1-carbamoyl-5-(2-hydroxy-ethoxy)-1H-indol-3-yl]-amide}2-(3-chloro-2-fluoro-benzylamide]
  IC50: 184 nM

## Cc1cc2c(C(N)=O)nn(CC(=O)N3[C@@H]4C[C@@H]4C[C@H]3C(=O)NCc3cccc(Cl)c3F)c2c(C)n1 [Example 695, 1-{2-[(1R,3S,5R)-3-(3-Chloro-2-fluoro-benzylcarbamoyl)-2-aza-bicyclo[3.1.0]hex-2-yl]-2-oxo-ethyl}-5,7-dimethyl-1H-pyrazolo[3,4-c]pyridine-3-carboxylic acid amide]
read-out: IC50
  IC50: 15 nM

## CC[C@@H]1CC[C@@H](C(=O)NCc2cccc(Cl)c2F)N1C(=O)Nc1cn(C(N)=O)c2ccccc12 [Example 351, 2S,5R)-5-Ethyl-pyrrolidine-1,2-dicarboxylic acid 1-[(1-carbamoyl-1H-indol-3-yl)-amide]2-(3-chloro-2-fluoro-benzylamide]
read-out: IC50
  IC50: 600 nM

## CC(=O)c1cn(CC(=O)N2C[C@H](F)[C@@H](F)[C@H]2C(=O)NCc2cccc(Cl)c2F)c2ccccc12 [Example 773, (2R,3S,4S)-1-[2-(3-Acetyl-indol-1-yl)-acetyl]-3,4-difluoro-pyrrolidine-2-carboxylic acid 3-chloro-2-fluoro-benzylamide]
read-out: IC50
  IC50: 28 nM

## NC(=O)n1cc(NC(=O)N2C[C@@H](N)C[C@H]2C(=O)NCc2ccc(Cl)s2)c2ccccc21 [Example 66, (2S,4S)-4-Amino-pyrrolidine-1,2-dicarboxylic acid 1-[(1-carbamoyl-1H-indol-3-yl)-amide] 2-[(5-chloro-thiophen-2-ylmethyl)-amide]]
read-out: IC50
  IC50: 65 nM

## NC(=O)n1cc(NC(=O)N2C[C@H](F)C[C@H]2C(=O)Nc2cccc(Br)n2)c2ccccc21 [Example 764, (2S,4R)-4-Fluoro-pyrrolidine-1,2-dicarboxylic acid 2-[(6-bromo-pyridin-2-yl)-amide]1-[(1-carbamoyl-1H-indol-3-yl)-amide]]
read-out: IC50
  IC50: 4 nM

## NC(=O)n1cc(NC(=O)N2[C@@H]3C[C@@H]3C[C@H]2C(=O)N[C@H](CO)c2cccc(Cl)c2)c2ccccc21 [Example 320, (1R,3S,5R)-2-Aza-bicyclo[3.1.0]hexane-2,3-dicarboxylic acid 2-[(1-carbamoyl-1H-indol-3-yl)-amide] 3-{[(S)-1-(3-chloro-phenyl)-2-hydroxy-ethyl]-amide}]
read-out: IC50
  IC50: 7 nM

## CC(=O)c1cn(CC(=O)N2C[C@](C)(F)C[C@H]2C(=O)N[C@H](CO)c2cccc(Cl)c2F)c2ncccc12 [Example 614, (2S,4R)-1-[2-(3-Acetyl-pyrrolo[2,3-b]pyridin-1-yl)-acetyl]-4-fluoro-4-methyl-pyrrolidine-2-carboxylic acid [(S)-1-(3-chloro-2-fluoro-phenyl)-2-hydroxy-ethyl]-amide]
read-out: IC50
  IC50: 245 nM

## NC(=O)c1nn(CC(=O)N2CCCC[C@H]2C(=O)NCc2cccc(Cl)c2F)c2cnccc12 [Example 656, 1-{2-[(S)-2-(3-Chloro-2-fluoro-benzylcarbamoyl)-piperidin-1-yl]-2-oxo-ethyl}-1H-pyrazolo[3,4-c]pyridine-3-carboxylic acid amide]
read-out: IC50
  IC50: 358 nM

## NC(=O)c1cn(CC(=O)N2C[C@H](F)C[C@H]2C(=O)NCc2cccc(Cl)c2F)c2c(Cl)cccc12 [Example 489, 7-Chloro-1-{2-[(2S,4R)-2-(3-chloro-2-fluoro-benzylcarbamoyl)-4-fluoro-pyrrolidin-1-yl]-2-oxo-ethyl}-1H-indole-3-carboxylic acid amide]
read-out: IC50
  IC50: 124 nM
